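Tested at 5 concentrations; 48 h exposure; 96-well plates; endpoints linearly interpolated, else capped at highest concentration. Abbreviation: GI50, concentration required for 50% inhibition of growth. TGI denotes the concentration required for complete inhibition of growth.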
Experiments:
Experiment in all cases: DTP human tumour cell line panel, 48 h
[1] = tested on: U251 CNS
[2] = tested on: IGROV1 ovarian
[3] = tested on: UACC-62 melanoma
[4] = tested on: HT29 colon
[5] = tested on: OVCAR-5 ovarian
[6] = tested on: MCF7 breast
[7] = tested on: PC-3 prostate
[8] = tested on: SW-620 colon
[9] = tested on: BT-549 breast
[10] = tested on: SK-MEL-28 melanoma
[11] = tested on: LOX IMVI melanoma
[12] = tested on: SNB-19 CNS
[13] = tested on: OVCAR-8 ovarian
[14] = tested on: EKVX NSCLC
[15] = tested on: HCT-15 colon
[16] = tested on: NCI-H23 lung
[17] = tested on: HCC-2998 colon
[18] = tested on: NCI-H460 lung
[19] = tested on: SF-268 CNS
[20] = tested on: ACHN renal
[21] = tested on: SK-OV-3 ovarian
[22] = tested on: SK-MEL-5 melanoma
[23] = tested on: HS 578T breast
[24] = tested on: A498 renal
[25] = tested on: TK-10 renal
[26] = tested on: UO-31 renal
[27] = tested on: CCRF-CEM leukemia
[28] = tested on: RXF 393 renal
[29] = tested on: SN12C renal
[30] = tested on: NCI/ADR-RES ovarian
[31] = tested on: K-562 leukemia
[32] = tested on: SNB-75 CNS
[33] = tested on: MOLT-4 leukemia
[34] = tested on: COLO 205 colon
[35] = tested on: HCT-116 colon
[36] = tested on: MDA-MB-435
[37] = tested on: NCI-H226 lung
[38] = tested on: A549 NSCLC
[39] = tested on: UACC-257 melanoma
[40] = tested on: 786-0 renal
[41] = tested on: OVCAR-4 ovarian
[42] = tested on: HL-60(TB) leukemia
[43] = tested on: SF-539 CNS
[44] = tested on: SK-MEL-2 melanoma
[45] = tested on: OVCAR-3 ovarian
[46] = tested on: KM12 colon
[47] = tested on: RPMI-8226 leukemia
[48] = tested on: MDA-MB-231 breast
[49] = tested on: MALME-3M melanoma
[50] = tested on: SF-295 CNS
[51] = tested on: CAKI-1 renal
[52] = tested on: HOP-62 NSCLC
[53] = tested on: SR leukemia
[54] = tested on: NCI-H522 lung
[55] = tested on: DU-145 prostate
[56] = tested on: T-47D breast
[57] = tested on: M14 melanoma

## Clc1ccc2sc(-n3ccc4ccccc43)nc2c1
[1]
  TGI: > 100 µM
[2]
  TGI: > 100 µM
[3]
  TGI: > 100 µM
[4]
  TGI: > 100 µM
[5]
  TGI: > 100 µM
[6]
  TGI: > 100 µM
[7]
  TGI: > 100 µM
[8]
  TGI: > 100 µM
[9]
  TGI: > 100 µM
[10]
  TGI: > 100 µM
[11]
  TGI: > 100 µM
[12]
  TGI: > 100 µM
[13]
  TGI: > 100 µM
[14]
  TGI: > 100 µM
[15]
  TGI: > 100 µM
[16]
  TGI: > 100 µM
[17]
  TGI: > 100 µM
[18]
  TGI: > 100 µM
[19]
  TGI: > 100 µM
[20]
  TGI: > 100 µM
[21]
  TGI: > 100 µM
[22]
  TGI: > 100 µM
[23]
  TGI: > 100 µM
[24]
  TGI: > 100 µM
[25]
  TGI: > 100 µM
[26]
  TGI: > 100 µM
[27]
  TGI: > 100 µM
[28]
  TGI: 69.3 µM
[29]
  TGI: > 100 µM
[30]
  TGI: > 100 µM
[31]
  TGI: > 100 µM
[32]
  TGI: > 100 µM
[33]
  TGI: > 100 µM

## Cc1sc(C)c(Cc2c(C)sc(C)c2CCl)c1CCl
[1]
  GI50: > 100 µM
  TGI: > 100 µM
[2]
  GI50: > 100 µM
  TGI: > 100 µM
[34]
  GI50: > 100 µM
  TGI: > 100 µM
[4]
  GI50: > 100 µM
  TGI: > 100 µM
[5]
  GI50: > 100 µM
  TGI: > 100 µM
[35]
  GI50: > 100 µM
  TGI: > 100 µM
[36]
  GI50: > 100 µM
  TGI: > 100 µM
[37]
  GI50: > 100 µM
  TGI: > 100 µM
[38]
  GI50: > 100 µM
  TGI: > 100 µM
[6]
  GI50: > 100 µM
  TGI: > 100 µM
[39]
  GI50: > 100 µM
  TGI: > 100 µM
[40]
  GI50: > 100 µM
  TGI: > 100 µM
[41]
  GI50: > 100 µM
  TGI: > 100 µM
[42]
  GI50: > 100 µM
  TGI: > 100 µM
[43]
  GI50: > 100 µM
  TGI: > 100 µM
[8]
  GI50: > 100 µM
  TGI: > 100 µM
[9]
  GI50: > 100 µM
  TGI: > 100 µM
[44]
  GI50: > 100 µM
  TGI: > 100 µM
[10]
  GI50: > 100 µM
  TGI: > 100 µM
[45]
  GI50: > 100 µM
  TGI: > 100 µM
[11]
  GI50: > 100 µM
  TGI: > 100 µM
[46]
  GI50: > 100 µM
  TGI: > 100 µM
[47]
  GI50: > 100 µM
  TGI: > 100 µM
[48]
  GI50: > 100 µM
  TGI: > 100 µM
[12]
  GI50: > 100 µM
  TGI: > 100 µM
[13]
  GI50: > 100 µM
  TGI: > 100 µM
[14]
  GI50: > 100 µM
  TGI: > 100 µM
[15]
  GI50: > 100 µM
  TGI: > 100 µM
[49]
  GI50: 81.4 µM
  TGI: > 100 µM
[16]
  GI50: > 100 µM
  TGI: > 100 µM
[50]
  GI50: > 100 µM
  TGI: > 100 µM
[18]
  GI50: > 100 µM
  TGI: > 100 µM
[19]
  GI50: > 100 µM
  TGI: > 100 µM
[51]
  GI50: > 100 µM
  TGI: > 100 µM
[52]
  GI50: > 100 µM
  TGI: > 100 µM
[20]
  GI50: > 100 µM
  TGI: > 100 µM
[21]
  GI50: > 100 µM
  TGI: > 100 µM
[53]
  GI50: > 100 µM
  TGI: > 100 µM
[22]
  GI50: > 100 µM
  TGI: > 100 µM
[54]
  GI50: > 100 µM
  TGI: > 100 µM
[23]
  GI50: > 100 µM
  TGI: > 100 µM
[24]
  GI50: > 100 µM
  TGI: > 100 µM
[25]
  GI50: > 100 µM
  TGI: > 100 µM
[26]
  GI50: > 100 µM
  TGI: > 100 µM
[27]
  GI50: > 100 µM
  TGI: > 100 µM
[55]
  GI50: > 100 µM
  TGI: > 100 µM
[28]
  GI50: > 100 µM
  TGI: > 100 µM
[29]
  GI50: > 100 µM
  TGI: > 100 µM
[56]
  GI50: > 100 µM
  TGI: > 100 µM
[30]
  GI50: > 100 µM
  TGI: > 100 µM
[31]
  GI50: 23 µM
  TGI: > 100 µM
[32]
  GI50: 51.5 µM
  TGI: > 100 µM
[33]
  GI50: > 100 µM
  TGI: > 100 µM
[57]
  GI50: > 100 µM
  TGI: > 100 µM

From PubChem BioAssay (NCI)
